Test results reported in US20100298141A1, “SUBSTITUTED PYRIDINE N-OXIDE HERBICIDES” (E. I. DU PONT DE NEMOURS AND COMPANY, priority 2007, published 2010).

How the values were obtained:
crabgrass [1] = experiment: Test A pre-/postemergence greenhouse test; assay type: in vivo, Digitaria sanguinalis; details: for Crabgrass, Large plant response rating: 0 to 100 scale; for Plant response rating, Crabgrass, Large: 0 to 100 scale where 0 is no effect and 100 is complete control
Procedure, shortened: (§1)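 Test compounds in non-phytotoxic solvent with surfactant were applied as a preemergence soil spray to seeded loam/sand pots and, concurrently, postemergence to plants at 2–10 cm, one- to two-leaf stage. About ten days in greenhouse, then injury visually rated against untreated controls.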

umbrella sedge = experiment: Test C flooded paddy test; assay type: in vivo, Cyperus difformis; details: Flood
Procedure, shortened: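 Test compounds are applied straight into paddy water held 3 cm above the soil surface, with that flood maintained for the whole test. After 13 to 15 days in the greenhouse, each species is scored visually relative to controls.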

eastern black nightshade = experiment: Test C pre-/postemergence test; assay type: in vivo, Solanum ptycanthum
Procedure, shortened: (§2)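 Compounds in a non-phytotoxic solvent with surfactant applied preemergence to seeded pots and, at the same time, postemergence to plants 2–18 cm tall (1- to 4-leaf stage). Paddy tests: pots flooded to 3 cm, compound applied into the water, depth held throughout.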

[2] = system: common (oilseed) sunflower; experiment: Test C pre-/postemergence test; assay type: in vivo, Helianthus annuus
Procedure, shortened: as §2

corn [3] = experiment: Test A pre-/postemergence greenhouse test; assay type: in vivo, Zea mays; details: for Corn plant response rating: 0 to 100 scale; for Plant response rating, Corn: 0 to 100 scale where 0 is no effect and 100 is complete control
Procedure, shortened: as §1

Italian ryegrass = experiment: Test C pre-/postemergence test; assay type: in vivo, Lolium multiflorum
Procedure, shortened: as §2

wheat = experiment: Test A pre-/postemergence greenhouse test; assay type: in vivo, Triticum aestivum; details: for Wheat plant response rating: 0 to 100 scale; for Plant response rating, Wheat: 0 to 100 scale where 0 is no effect and 100 is complete control
Procedure, shortened: as §1

morningglory = experiment: Test C pre-/postemergence test; assay type: in vivo, Ipomoea coccinea
Procedure, shortened: as §2

crabgrass [4] = experiment: Test C pre-/postemergence test; assay type: in vivo, Digitaria sanguinalis
Procedure, shortened: as §2

johnsongrass = experiment: Test C pre-/postemergence test; assay type: in vivo, Sorghum halepense
Procedure, shortened: as §2

corn [5] = experiment: Test C pre-/postemergence test; assay type: in vivo, Zea mays
Procedure, shortened: as §2

giant foxtail = experiment: Test C pre-/postemergence test; assay type: in vivo, Setaria faberii
Procedure, shortened: as §2

Surinam grass = experiment: Test C pre-/postemergence test; assay type: in vivo, Brachiaria decumbens
Procedure, shortened: as §2

velvetleaf = experiment: Test C pre-/postemergence test; assay type: in vivo, Abutilon theophrasti
Procedure, shortened: as §2

barnyardgrass = experiment: Test A pre-/postemergence greenhouse test; assay type: in vivo, Echinochloa crus-galli; details: for Barnyardgrass plant response rating: 0 to 100 scale; for Plant response rating, Barnyardgrass: 0 to 100 scale where 0 is no effect and 100 is complete control
Procedure, shortened: as §1

Goosegrass = experiment: Test C pre-/postemergence test; assay type: in vivo, Eleusin indica
Procedure, shortened: as §2

pigweed = experiment: Test C pre-/postemergence test; assay type: in vivo, Amaranthus retroflexus
Procedure, shortened: as §2

[6] = Postemergence, 125 g ai/ha, 0 is no effect, 100 is complete control
[7] = Postemergence, 500 g ai/ha, 0 is no effect, 100 is complete control
[8] = Preemergence, 125 g ai/ha, 0 no effect, 100 complete control
[9] = 31 g ai/ha, Preemergence, scale 0 to 100
[10] = 62 g ai/ha, preemergence, scale 0 (no effect) to 100 (complete control)
[11] = preemergence, 125 g ai/ha, scale 0 (no effect) to 100 (complete control)
[12] = 62 g ai/ha, Preemergence, scale 0 to 100
[13] = 125 g ai/ha, preemergence, scale 0 (no effect) to 100 (complete control)
[14] = Preemergence, 31 g ai/ha, scale 0 to 100 (0 no effect, 100 complete control)
[15] = preemergence, 250 g ai/ha, scale 0 (no effect) to 100 (complete control)

## Cn1nc(C(F)(F)F)c(CS(=O)(=O)c2ccc(Cl)c[n+]2[O-])c1OC(F)F [Compound 7]
Crabgrass [1]; [6]
  Crabgrass, Large plant response rating: 70
Crabgrass [1]; [7]
  Crabgrass, Large plant response rating: 80
Crabgrass [1]; [8]
  Crabgrass, Large plant response rating: 90
Crabgrass [1]; Preemergence, 500 g ai/ha
  Plant response rating, Crabgrass, Large: 90
Umbrella sedge; 31 g ai/ha, scale 0 to 100 (0 no effect, 100 complete control)
  Plant response rating, Sedge, Umbrella: 0
Umbrella sedge; 62 g ai/ha, scale 0 to 100, 0 no effect, 100 complete control, 13 to 15 days
  Plant response rating, Sedge, Umbrella: 40
Umbrella sedge; 125 g ai/ha, scale 0 to 100, 0 no effect, 100 complete control, 13 to 15 days
  Plant response rating, Sedge, Umbrella: 55
Umbrella sedge; 250 g ai/ha, scale 0 to 100 (0 no effect, 100 complete control)
  Plant response rating, Sedge, Umbrella: 60
Eastern black nightshade; [9]
  Nightshade plant response rating: 0
Eastern black nightshade; [10]
  Nightshade plant response rating: 50
Eastern black nightshade; Preemergence, 250 g ai/ha
  Plant response rating (0 to 100), Nightshade: 95
Eastern black nightshade; [11]
  Nightshade plant response rating: 50
[2]; [10]
  Sunflower plant response rating: 0
[2]; Preemergence, 250 g ai/ha
  Plant response rating (0 to 100), Sunflower: 0
[2]; [11]
  Sunflower plant response rating: 0
Corn [3]; [7]
  Corn plant response rating: 20
Corn [3]; Preemergence, 500 g ai/ha
  Plant response rating, Corn: 30
Italian ryegrass; [9]
  Ryegrass, Italian plant response rating: 0
Italian ryegrass; [10]
  Ryegrass, Italian plant response rating: 40
Italian ryegrass; Preemergence, 250 g ai/ha
  Plant response rating (0 to 100), Ryegrass, Italian: 50
Italian ryegrass; [11]
  Ryegrass, Italian plant response rating: 50
wheat; [6]
  Wheat plant response rating: 0
wheat; [7]
  Wheat plant response rating: 20
wheat; [8]
  Wheat plant response rating: 20
wheat; Preemergence, 500 g ai/ha
  Plant response rating, Wheat: 50
morningglory; [9]
  Morningglory plant response rating: 0
morningglory; [10]
  Morningglory plant response rating: 0
morningglory; Preemergence, 250 g ai/ha
  Plant response rating (0 to 100), Morningglory: 0
morningglory; [11]
  Morningglory plant response rating: 0
Crabgrass [4]; [9]
  Crabgrass, Large plant response rating: 100
Crabgrass [4]; [10]
  Crabgrass, Large plant response rating: 100
Crabgrass [4]; Preemergence, 250 g ai/ha
  Plant response rating (0 to 100), Crabgrass, Large: 100
Crabgrass [4]; [11]
  Crabgrass, Large plant response rating: 100
johnsongrass; [9]
  Johnsongrass plant response rating: 90
johnsongrass; [10]
  Johnsongrass plant response rating: 100
johnsongrass; Preemergence, 250 g ai/ha
  Plant response rating (0 to 100), Johnsongrass: 100
johnsongrass; [11]
  Johnsongrass plant response rating: 100
Corn [5]; [9]
  Corn plant response rating: 0
Corn [5]; [10]
  Corn plant response rating: 0
Corn [5]; Preemergence, 250 g ai/ha
  Plant response rating (0 to 100), Corn: 30
Corn [5]; [11]
  Corn plant response rating: 10
Giant foxtail; [9]
  Foxtail, Giant plant response rating: 50
Giant foxtail; [10]
  Foxtail, Giant plant response rating: 50
Giant foxtail; Preemergence, 250 g ai/ha
  Plant response rating (0 to 100), Foxtail, Giant: 100
Giant foxtail; [11]
  Foxtail, Giant plant response rating: 80
Surinam grass; [10]
  Surinam Grass plant response rating: 20
Surinam grass; Preemergence, 250 g ai/ha
  Plant response rating (0 to 100), Surinam Grass: 70
Surinam grass; [11]
  Surinam Grass plant response rating: 30
velvetleaf; [10]
  Velvetleaf plant response rating: 0
velvetleaf; Preemergence, 250 g ai/ha
  Plant response rating (0 to 100), Velvetleaf: 0
velvetleaf; [11]
  Velvetleaf plant response rating: 0
barnyardgrass; [6]
  Barnyardgrass plant response rating: 10
barnyardgrass; [8]
  Barnyardgrass plant response rating: 90
barnyardgrass; Preemergence, 500 g ai/ha
  Plant response rating, Barnyardgrass: 90
Goosegrass; [9]
  Goosegrass plant response rating: 100
Goosegrass; [10]
  Goosegrass plant response rating: 100
Goosegrass; Preemergence, 250 g ai/ha
  Plant response rating (0 to 100), Goosegrass: 100
Goosegrass; [11]
  Goosegrass plant response rating: 100
pigweed; [9]
  Pigweed plant response rating: 100
pigweed; [10]
  Pigweed plant response rating: 100
pigweed; Preemergence, 250 g ai/ha
  Plant response rating (0 to 100), Pigweed: 100
pigweed; [11]
  Pigweed plant response rating: 100

## Cc1cc[n+]([O-])c(S(=O)(=O)Cc2c(C(F)(F)F)nn(C)c2OC(C)C(F)(F)F)c1 (stereo not shown) [Compound 96]
Crabgrass [1]; Postemergence, 125 g ai/ha
  Plant response rating, Crabgrass, Large: 40
Crabgrass [1]; [7]
  Crabgrass, Large plant response rating: 90
Crabgrass [1]; [8]
  Crabgrass, Large plant response rating: 80
Crabgrass [1]; Preemergence, 500 g ai/ha
  Plant response rating, Crabgrass, Large: 100
Umbrella sedge; 62 g ai/ha, scale 0 to 100 (0 no effect, 100 complete control)
  Plant response rating, Sedge, Umbrella: 0
Umbrella sedge; 250 g ai/ha, scale 0 to 100, 0 no effect, 100 complete control, 13 to 15 days
  Plant response rating, Sedge, Umbrella: 75
Eastern black nightshade; [12]
  Nightshade plant response rating: 85
Eastern black nightshade; [13]
  Nightshade plant response rating: 95
Eastern black nightshade; [14]
  Plant response rating, Nightshade: 75
Eastern black nightshade; [15]
  Nightshade plant response rating: 100
[2]; [12]
  Sunflower plant response rating: 0
[2]; [13]
  Sunflower plant response rating: 0
[2]; [14]
  Plant response rating, Sunflower: 0
[2]; [15]
  Sunflower plant response rating: 30
Corn [3]; Postemergence, 125 g ai/ha
  Plant response rating, Corn: 20
Corn [3]; [8]
  Corn plant response rating: 0
Corn [3]; Preemergence, 500 g ai/ha
  Plant response rating, Corn: 50
Italian ryegrass; [12]
  Ryegrass, Italian plant response rating: 98
Italian ryegrass; [13]
  Ryegrass, Italian plant response rating: 100
Italian ryegrass; [14]
  Plant response rating, Ryegrass, Italian: 60
Italian ryegrass; [15]
  Ryegrass, Italian plant response rating: 100
wheat; Postemergence, 125 g ai/ha
  Plant response rating, Wheat: 50
wheat; [7]
  Wheat plant response rating: 70
wheat; [8]
  Wheat plant response rating: 20
wheat; Preemergence, 500 g ai/ha, 0 no effect, 100 complete control
  Wheat plant response rating: 80
morningglory; [12]
  Morningglory plant response rating: 70
morningglory; [13]
  Morningglory plant response rating: 95
morningglory; [14]
  Plant response rating, Morningglory: 0
morningglory; [15]
  Morningglory plant response rating: 100
Crabgrass [4]; [12]
  Crabgrass, Large plant response rating: 85
Crabgrass [4]; [13]
  Crabgrass, Large plant response rating: 95
Crabgrass [4]; [14]
  Plant response rating, Crabgrass, Large: 80
Crabgrass [4]; [15]
  Crabgrass, Large plant response rating: 98
johnsongrass; [12]
  Johnsongrass plant response rating: 95
johnsongrass; [13]
  Johnsongrass plant response rating: 100
johnsongrass; [14]
  Plant response rating, Johnsongrass: 70
johnsongrass; [15]
  Johnsongrass plant response rating: 100
Corn [5]; [12]
  Corn plant response rating: 0
Corn [5]; [13]
  Corn plant response rating: 35
Corn [5]; [14]
  Plant response rating, Corn: 0
Corn [5]; [15]
  Corn plant response rating: 60
Giant foxtail; [12]
  Foxtail, Giant plant response rating: 80
Giant foxtail; [13]
  Foxtail, Giant plant response rating: 95
Giant foxtail; [14]
  Plant response rating, Foxtail, Giant: 80
Giant foxtail; [15]
  Foxtail, Giant plant response rating: 98
Surinam grass; [12]
  Surinam Grass plant response rating: 80
Surinam grass; [13]
  Surinam Grass plant response rating: 100
Surinam grass; [14]
  Plant response rating, Surinam Grass: 75
Surinam grass; [15]
  Surinam Grass plant response rating: 100
velvetleaf; [12]
  Velvetleaf plant response rating: 30
velvetleaf; [13]
  Velvetleaf plant response rating: 40
velvetleaf; [14]
  Plant response rating, Velvetleaf: 0
velvetleaf; [15]
  Velvetleaf plant response rating: 90
barnyardgrass; Postemergence, 125 g ai/ha
  Plant response rating, Barnyardgrass: 60
barnyardgrass; [7]
  Barnyardgrass plant response rating: 90
barnyardgrass; [8]
  Barnyardgrass plant response rating: 90
barnyardgrass; Preemergence, 500 g ai/ha
  Plant response rating, Barnyardgrass: 100
Goosegrass; [12]
  Goosegrass plant response rating: 100
Goosegrass; [13]
  Goosegrass plant response rating: 100
Goosegrass; [14]
  Plant response rating, Goosegrass: 95
Goosegrass; [15]
  Goosegrass plant response rating: 100
pigweed; [12]
  Pigweed plant response rating: 70
pigweed; [13]
  Pigweed plant response rating: 70
pigweed; [14]
  Plant response rating, Pigweed: 10
pigweed; [15]
  Pigweed plant response rating: 100
